# Measurements published in patent US5389655A, “Phenylfuroxans” (Cassella AG, priority 1992, dated 1995).
# pIC50: −log10 of the molar value. Where a name gives a salt, the structure may show the parent alone.
# System: pulmonary artery of the guinea-pig
# Experiment: relaxation of guinea-pig potassium-depolarised pulmonary artery strips (inhibition of CaCl2-induced contraction)
# Conditions: Cavia porcellus, read-out: IC50 (concentration of the test substance which inhibits the contraction by 50%)
# Source text: As a guanylate cyclase activator, nitrogen monoxide leads to an increase in cyclic guanosine monophosphate, which causes a relaxation in the smooth muscle and antiadhesive and antiaggregatory actions in the blood platelets. Nitrogen monoxide is additionally crucially involved in learning processes, in the regulation of the kidney function, in immune defence, in septic shock and in erectile dysfunctions. […] In this method, spiral strips of the pulmonary artery of the guinea-pig are depolarised using 40 mmol/l potassium after equilibration in calcium-free Tyrode solution. An addition of 0.5 mmol/l of CaCl2 then induces a contraction.
row,Compound,pIC50
1,"O=[N+]([O-])O[C@@H]1CO[C@H]2[C@@H]1OC[C@@H]2O [Isosorbide-5-mononitrate, reference compound]",< 4.00

# Same assay, conditions: Cavia porcellus; spiral strips depolarised with 40 mmol/l potassium; contraction by 0.5 mmol/l CaCl2; cumulative addition; average of 4 to 6 vessel strips; read-out: IC50 (concentration of the test substance which inhibits the contraction by 50%)
row,Compound,pIC50
1,"CCOC(=O)[N-]c1cn(N2CCOCC2)n[o+]1 [Molsidomine, reference compound]",3.52
2,"COC(=O)C[S+]([O-])c1no[n+]([O-])c1-c1ccccc1 (stereo not shown) [Compound 2, 3-Phenyl-4-(methoxycarbonylmethylsulphinyl)-1,2,5-oxadiazole-2-oxide]",5.52
3,"CN(CCOc1no[n+]([O-])c1-c1ccccc1)Cc1ccccc1 [Compound 6, 3-Phenyl-4-(2-(N-benzyl-N-methylamino)ethoxy)-1,2,5-oxadiazole-2-oxide hydrochloride]",5.40

# Second part, the molecule after the results:
row,pIC50,Compound
1,7.52,"CCCCS(=O)(=O)c1no[n+]([O-])c1-c1ccccc1 [Compound 9, 3-Phenyl-4-butylsulphonyl-1,2,5-oxadiazole-2-oxide]"
2,5.52,"[O-][n+]1onc(OCc2cccnc2)c1-c1ccccc1 [Compound 12, 3-Phenyl-4-(pyrid-3-ylmethoxy)-1,2,5-oxadiazole-2-oxide]"
3,6.15,"CCN(CC)CCS(=O)(=O)c1no[n+]([O-])c1-c1ccccc1 [Compound 5, 3-Phenyl-4-(2-diethylaminoethylsulphonyl)-1,2,5-oxadiazole-2-oxide]"
4,5.70,"NC(=O)C[S+]([O-])c1no[n+]([O-])c1-c1ccccc1 (stereo not shown) [Compound 19, 3-Phenyl-4-(aminocarbonylmethylsulphinyl)-1,2,5-oxadiazole-2-oxide]"
5,7.30,"CCS(=O)(=O)c1no[n+]([O-])c1-c1ccccc1 [Compound 20, 3-Phenyl-4-ethylsulphonyl-1,2,5-oxadiazole-2-oxide]"
6,6.52,"O=S(=O)(CCO)c1no[n+]([O-])c1-c1ccccc1 [Compound 10, 3-Phenyl-4-(2-hydroxyethylsulphonyl)-1,2,5-oxadiazole-2-oxide]"
